Activity calls are given as the source filed them.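 How the source made its calls: active means EC50 at or below 10 µM; inactive means the rest.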
biological target: cAMP-dependent protein kinase type II-beta regulatory subunit (Homo sapiens) + cAMP-dependent protein kinase catalytic subunit beta (Mus musculus) (UniProt P31323+P68181); assay: compounds dissociating PKAc from R2B subunit – biochemical, fluorescence polarization, powder samples, late-stage follow-up (AID 588841); details: PKA-R2B holoenzyme dissociation, Cy5-IP20 fluorescence polarization

SMILES | EC50
COC(=O)c1sc2ncccc2c1OCc1ccccc1Cl | > 100 µM (inactive)
CC(C)(C)c1ccc(COc2ccsc2C(=O)O)cc1 | > 100 µM (inactive)
Cc1csc(C(=O)O)c1NC(=O)c1ccc(F)cc1 | > 100 µM (inactive)
Cc1ccc(COc2ccsc2C(=O)O)cc1 | > 100 µM (inactive)
O=C(O)c1sc2ncccc2c1OCc1ccccc1 | > 100 µM (inactive)

More lines, now with the values ahead:

EC50 | SMILES
> 100 µM (inactive) | O=C(O)c1sccc1SCc1ccc(Cl)c(Cl)c1
> 100 µM (inactive) | O=C(O)c1sccc1SCc1ccc(Cl)cc1Cl
> 100 µM (inactive) | COC(=O)c1sc2ncccc2c1OCc1ccc(Cl)cc1Cl
> 100 µM (inactive) | O=C(O)c1sccc1NC(=O)c1c(Cl)cccc1Cl
